Results from patent publication US20080021044A1 (priority 2006, published 2008).

Assay: Solubility of the compound of formula (I) as a function of time in aqueous solvents (HPLC)
Format: physicochemical
Conditions: thermodynamic from solid; for solubility at 1 h / solubility at 2 h / solubility at 4 h / solubility at 24 h / solubility at 48 h / solubility at 0.5 h: 25° C. water bath, agitated; for solubility at 0.5 h: ½ hr; for solubility at 7 days: kept at room temperature with no agitation
Protocol: The sample vials were pulled out at each time point, the pH was measured and the sample was filtered a 0.45 μm PTFE membrane filter. The filtrate was appropriately diluted with the dilution solvent and the concentration of the compound was measured using HPLC. HPLC conditions were as follows: Method: Isocratic method, 70% mobile phase A −30% mobile phase B; Column: Supelco Discovery HS-C18, 3 μm, 4.6×150mm; Mobile Phase A: 0.05% TFA in water; B: 0.05% TFA in acetonitrile; Flow rate: 1.0 mL/min; Detection: UV: Wavelength: 240 nm, bandwidth 4 nm; Reference wavelength: 450 nm, bandwidth 80 nm; Run time: 6 min; Injection volume: 10 μL.

[1] = aqueous buffer, 0.1N NaOH (pH ˜12.8)
[2] = aqueous buffer, borate buffer pH 8
[3] = aqueous buffer, borate buffer pH 10
[4] = aqueous buffer, citrate buffer pH 2
[5] = aqueous buffer, citrate buffer pH 4
[6] = aqueous buffer, citrate buffer pH 6
[7] = simulated gastric fluid, 0.1N HCl
[8] = simulated intestinal fluid (SIF), fassgf or other biorelevant, SIF (pH ˜6.75)

solubility at 1 h [1]: 0.98 mg/mL
solubility at 2 h [1]: 0.98 mg/mL
solubility at 4 h [1]: 1 mg/mL
solubility at 24 h [1]: 1 mg/mL
solubility at 48 h [1]: 0.99 mg/mL
solubility at 0.5 h [1]: 0.92 mg/mL
solubility at 4 h [2]: 1.3 mg/mL
solubility at 24 h [2]: 1.2 mg/mL
solubility at 48 h [2]: 1.2 mg/mL
solubility at 4 h [3]: 1 mg/mL
solubility at 24 h [3]: 1 mg/mL
solubility at 48 h [3]: 1 mg/mL
solubility at 1 h [4]: 8.7 mg/mL
solubility at 2 h [4]: 8.8 mg/mL
solubility at 4 h [4]: 10.4 mg/mL
solubility at 24 h [4]: 6.9 mg/mL
solubility at 48 h [4]: 7.5 mg/mL
solubility at 7 days [4]: 4 mg/mL
solubility at 0.5 h [4]: 7.6 mg/mL
solubility at 1 h [5]: 2.4 mg/mL
solubility at 2 h [5]: 2.8 mg/mL
solubility at 4 h [5]: 2.5 mg/mL
solubility at 24 h [5]: 2.7 mg/mL
solubility at 48 h [5]: 2.7 mg/mL
solubility at 0.5 h [5]: 2.1 mg/mL
solubility at 1 h [6]: 1.8 mg/mL
solubility at 2 h [6]: 1.8 mg/mL
solubility at 4 h [6]: 2 mg/mL
solubility at 24 h [6]: 1.6 mg/mL
solubility at 48 h [6]: 1.5 mg/mL
solubility at 7 days [6]: 1.3 mg/mL
solubility at 0.5 h [6]: 2.1 mg/mL
solubility at 1 h [7]: 40.2 mg/mL
solubility at 2 h [7]: 40.9 mg/mL
solubility at 4 h [7]: 43 mg/mL
solubility at 24 h [7]: 40.4 mg/mL
solubility at 48 h [7]: 39.2 mg/mL
solubility at 7 days [7]: 26.9 mg/mL
solubility at 0.5 h [7]: 31.6 mg/mL
solubility (simulated intestinal fluid (SIF), 25 °C, pH 6.75, fassgf or other biorelevant): 2.7 to 2.8 mg/mL
solubility at 4 h [8]: 2.8 mg/mL
solubility at 24 h [8]: 2.7 mg/mL
solubility at 48 h [8]: 2.7 mg/mL
solubility at 4 h (water (pH ˜9)): 1.1 mg/mL
solubility at 24 h (water (pH ˜9)): 1.1 mg/mL
solubility at 48 h (water (pH ˜9)): 1.1 mg/mL
SMILES: Cc1cnc(NCC(F)(F)c2ccccc2)c(=O)n1CC(=O)NCCONC(=N)N [compound of formula (I), N-[2-[[(diaminomethylene)amino]oxy]ethyl]-3-[(2,2-difluoro-2-phenylethyl)amino]-6-methyl-2-oxo-1(2H)-pyrazineacetamide]
